Results on five molecules are retold here after US20250230154A1, “COMPOUND HAVING SHP2 PROTEIN DEGRADING ACTIVITY, AND MEDICAL USES THEREOF” (UBIX THERAPEUTICS, INC., priority 2021, published 2025).

The target in this assay is T1, SHP2 protein (Homo sapiens, UniProt Q06124).
T1 sequence (Q06124 1-593): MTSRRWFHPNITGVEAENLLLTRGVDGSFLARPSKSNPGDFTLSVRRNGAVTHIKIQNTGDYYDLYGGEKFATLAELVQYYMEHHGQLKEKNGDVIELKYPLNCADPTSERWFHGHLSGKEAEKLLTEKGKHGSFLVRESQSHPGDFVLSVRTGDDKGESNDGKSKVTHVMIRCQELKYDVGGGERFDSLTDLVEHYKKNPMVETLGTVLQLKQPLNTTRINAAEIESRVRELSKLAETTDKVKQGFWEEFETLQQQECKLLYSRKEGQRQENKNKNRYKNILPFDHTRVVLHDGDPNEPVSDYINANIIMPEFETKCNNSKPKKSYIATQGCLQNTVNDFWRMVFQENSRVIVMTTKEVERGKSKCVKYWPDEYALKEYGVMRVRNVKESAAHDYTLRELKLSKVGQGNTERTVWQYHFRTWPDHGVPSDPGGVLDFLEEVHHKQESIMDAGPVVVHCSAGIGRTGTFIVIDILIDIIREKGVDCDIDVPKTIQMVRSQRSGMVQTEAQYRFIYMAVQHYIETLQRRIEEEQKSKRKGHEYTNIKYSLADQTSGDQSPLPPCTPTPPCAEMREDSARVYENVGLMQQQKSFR
Kind of assay: Measurement of SHP2 protein degradation in MV-4-11 cells (western blotting). The assay is classed as cell-based. On the set-up: endogenous in cells; host or cells: MV-4-11. The conditions noted are these: for SHP2 degradation (%) 10 nM / SHP2 degradation (%) 100 nM / SHP2 degradation (%) 1000 nM: MV-4-11 cells, 24 hours. Here is the method:
Experimental Example 2: Measurement of SHP2 Protein Degradation in MV-4-11 Cells
MV-4-11 cells were treated with the synthesized Example compound, and the amount of SHP2 protein present in the cells was measured using western blotting detection. The protocol of the experiment conducted using MV-4-11 cells was as follows:
[Culture] MV-4-11 cells resuspended in IMDM MEDIUM (Hyclone, SH30228.01) containing 5% FBS (Hyclone, SV30207.02) and 1% Penicillin-streptomycin (Welgene, LS 202-02) were seeded at a density of 1×10^6/mL/well in a 12-well plate in an amount of 1 ml each.
[Compound treatment] The 12-well plate was treated as follows: Cells were treated with compounds at a final concentration of […] made by serial dilution of 10 mM stock with DMSO in 1/100 increments […]. After 24 hours, cells were harvested. For the negative control group, DMSO diluted 1/100 to the media (3 mL DMSO+297 mL media) was added.
[Harvest] Each well was collected in a 1.5 mL microtube by pipetting with a 1 mL pipette and centrifuged (500 g, 5 min, 4° C.). The supernatant was removed. It was washed with PBS, and then centrifuged again (500 g, 5 min, 4° C.). Thereafter, the supernatant was removed to prepare a pellet.
[Cell Lysis and Sample preparation] Lysis buffer was prepared as follows: […] of RIPA buffer (Biosesang, RC2038-050-00)+0.5 mM PMSF (SIGMA, P7626)+1× Protease/Phosphatase Inhibitor (Cell signaling, 5872S) per well was added and placed on ice for 30 minutes (vortexing at 0 and 30 minutes, respectively). After sonication process (10 seconds pulse, 30 seconds rest, 5 cycles, 70% amplification), centrifugation (15000 g, 15 min, 4° C.) was performed, and then only the supernatant was taken and transferred to a microtube. The sample was diluted ¼ with RIPA buffer in a 96-well plate, and mixed with A:B=50:1 of the BCA Protein Assay Kit (iNtRON, 21071). […] each of the mixture was left at 37° C. for 30 minutes, and cooled for 10 minutes. Then, absorbance was measured at 562 nm with the SYNERGY H1 microplate reader from BioTek. After making a sample by quantifying the protein with the measured value, boiling was performed at 70° C. for 10 minutes. At this time, the sample buffer used was a mixture of NuPAGE or Bolt 4× sample buffer (Invitrogen) and each 10× sample reducing agent according to the gel to be used, and RIPA buffer was used for protein dilution.
[Western blotting detection method] The same amount of sample was loaded on NuPAGE or Bolt Bis-tris 4-12% gradient gel and run (200 V, 35 minutes). It was transferred to 0.2 mm NC membrane with Trans-blot Turbo (BIO-RAD) (1.3 A constant, 25 V limit, 15 minutes). Blocking was performed at room temperature for 1 hour with Skim milk or Intercept Blocking Buffer (LI-COR, 927-60001):0.1% TBST=1:1. Anti-SHPTP2 Mouse (1:500 in 2% BSA/0.2% TBST, size: 70 kDa, Santacruz sc-7384) was incubated overnight at 4° C., and Anti-GAPDH Rabbit (1:2,000 in 2% BSA/0.2% TBST, size: 37 kDa, CST #2118) was incubated at room temperature for 1 hour 30 minutes or 3 hours. It was washed 3 times for 5 minutes each with 0.2% TBST washing buffer. Secondary antibody Anti-Rabbit IgG (1:5,000 in 2% BSA/0.2% TBST, CST), IRDye® 680RD Goat anti-Rabbit IgG Secondary Antibody (1:10,000 in 2% BSA/0.2% TBST, LI-COR 926-68071) were added and incubated for 45 minutes on a rocker at room temperature. It was washed 5 times for 5 minutes each with 0.2% TBST washing buffer and detected with LI-COR's Odyssey. At this time, SHPTP2 was detected using SuperSignal West Pico PLUS Chemiluminescent Substrate, and house-keeping genes were also detected.
In the results of Table 4 below, Compounds 1-7, 13-19, and 21-26 are results in KYSE-520 cells, and the others are results in MV-4-11 cells.

For the molecule `Cc1ncsc1-c1ccc(CNC(=O)[C@@H]2C[C@@H](O)CN2C(=O)[C@@H](NC(=O)C2(F)CC2)C(C)(C)C)c(OCCN2CCN(c3cnc(C(=O)Nc4cccc(Sc5cnc(N6CCC(C)(CN)CC6)cn5)c4Cl)nc3)CC2)c1` [Example 83, N-(3-((5-(4-(aminomethyl)-4-methylpiperidin-1-yl)pyrazin-2-yl)thio)-2-chlorophenyl)-5-(4-(2-(2-(((2S,4R)-1-((S)-2-(1-fluorocyclopropane-1-carboxamido)-3,3-dimethylbutanoyl)-4-hydroxypyrrolidine-2-carboxamido)methyl)-5-(4-methylthiazol-5-yl)phenoxy)ethyl)piperazin-1-yl)pyrimidine-2-carboxamide], the “SHP2 degradation (%) 10 nM” value turned out to be 79.9% and the “SHP2 degradation (%) 100 nM” value is listed as 97.5%.

Regarding `Cc1ncsc1-c1ccc(CNC(=O)[C@@H]2C[C@@H](O)CN2C(=O)[C@@H](NC(=O)C2(F)CC2)C(C)(C)C)c(OCCCN2CCC(CC(=O)Nc3cccc(Sc4ncc(N5CCC(C)(CN)CC5)nc4N)c3Cl)CC2)c1` [Example 10, (2S,4R)—N-(2-(3-(4-(2-((3-((3-amino-5-(4-(aminomethyl)-4-methylpiperidin-1-yl)pyrazin-2-yl)thio)-2-chlorophenyl)amino)-2-oxoethyl)piperidin-1-yl)propoxy)-4-(4-methylthiazol-5-yl)benzyl)-1-((S)-2-(1-fluorocyclopropane-1-carboxamido)-3,3-dimethylbutanoyl)-4-hydroxypyrrolidine-2-carboxamide], the “SHP2 degradation (%) 10 nM” value is listed as 33.7%, the “SHP2 degradation (%) 100 nM” value is given as 90.9% and the “SHP2 degradation (%) 1000 nM” value was determined as 95.0%.

With `Cc1ncsc1-c1ccc(CNC(=O)[C@@H]2C[C@@H](O)CN2C(=O)[C@@H](NC(=O)C2(F)CC2)C(C)(C)C)c(OCCCC2CCN(C(=O)C3(C(=O)Nc4cccc(Sc5cnc(N6CCC(C)(CN)CC6)cn5)c4Cl)CC3)CC2)c1` [Example 48, (2S,4R)—N-(2-(3-(1-(1-((3-((5-(4-(aminomethyl)-4-methylpiperidin-1-yl)pyrazin-2-yl)thio)-2-chlorophenyl)carbamoyl)cyclopropane-1-carbonyl)piperidin-4-yl)propoxy)-4-(4-methylthiazol-5-yl)benzyl)-1-((S)-2-(1-fluorocyclopropane-1-carboxamido)-3,3-dimethylbutanoyl)-4-hydroxypyrrolidine-2-carboxamide], the “SHP2 degradation (%) 10 nM” value is listed as 18.6% and the “SHP2 degradation (%) 100 nM” value is recorded as 57.3%. Also, the “SHP2 protein degradation activity (in words)” value (comment on Table 4) is “somewhat decreased”.

As to `Cc1ncsc1-c1ccc(CNC(=O)[C@@H]2C[C@@H](O)CN2C(=O)[C@@H](NC(=O)C2(F)CC2)C(C)(C)C)c(OCCN2CCN(C(=O)CC(=O)Nc3cccc(Sc4ncc(N5CCC(C)(CN)CC5)nc4N)c3Cl)CC2)c1` [Example 55, (2S,4R)—N-(2-(2-(4-(3-((3-((3-amino-5-(4-(aminomethyl)-4-methylpiperidin-1-yl)pyrazin-2-yl)thio)-2-chlorophenyl)amino)-3-oxopropanoyl)piperazin-1-yl)ethoxy)-4-(4-methylthiazol-5-yl)benzyl)-1-((S)-2-(1-fluorocyclopropane-1-carboxamido)-3,3-dimethylbutanoyl)-4-hydroxypyrrolidine-2-carboxamide], the “SHP2 degradation (%) 10 nM” value is recorded as 85.9% and the “SHP2 degradation (%) 100 nM” value came to 97.8%.

Consider `Cc1ncsc1-c1ccc(CNC(=O)[C@@H]2C[C@@H](O)CN2C(=O)[C@@H](NC(=O)C2(F)CC2)C(C)(C)C)c(OCCCN2CCN(C(=O)CC(=O)Nc3cccc(Sc4cnc(N5CCC(C)(CN)CC5)cn4)c3Cl)CC2)c1` [Example 60, (2S,4R)—N-(2-(3-(4-(3-((3-((5-(4-(aminomethyl)-4-methylpiperidin-1-yl)pyrazin-2-yl)thio)-2-chlorophenyl)amino)-3-oxopropanoyl)piperazin-1-yl)propoxy)-4-(4-methylthiazol-5-yl)benzyl)-1-((S)-2-(1-fluorocyclopropane-1-carboxamido)-3,3-dimethylbutanoyl)-4-hydroxypyrrolidine-2-carboxamide], for which the “SHP2 degradation (%) 10 nM” value was found to be 59%, the “SHP2 degradation (%) 100 nM” value came to 94% and the “SHP2 degradation (%) 1000 nM” value is listed as 95.5%.
